Experimental data: patent US11041013B2, “Methods of preparation and composition of peptide constructs useful for treatment of rheumatoid arthritis” (Cel-Sci Corporation, priority 2008, dated 2021)

Columns and labels:
[1] = test system: collagen induced arthritis (CIA); assay: CIA model, arthritis index (AI) score; format: in vivo, DBA/1J mice; details: for effectiveness in the murine CIA model of RA relative to SEQ ID NO. 99: studies 1-5 and FIGS. 1-4; for progression of disease, as indicated by AI scores: two treatments of 33 nmoles in ICFA adjuvant, Enbrel 3 mg/kG daily for the first 14 days
Description: The following five studies are of CEL-2000 therapeutic vaccine for collagen induced arthritis (CIA) where the first step was to identify a good animal model for testing the vaccine, which is the collagen induced arthritis (CIA) model in young (6-7) week old male DBA/1J mice. These mice received 2 injections of bovine collagen the first in complete Freund's adjuvant (CFA) on day 0 and then 3 weeks later on day 21, in Incomplete CFA. After the second collagen injection, the mice were evaluated daily for any joint swelling or redness. Each of the paws was scored on a 4 point scale (arthritis index Arthritis Index (AI)) with respect to the number of digits with symptoms and the thickness of the paw measured, at least 3-4 times a week. Each mouse was weighed weekly.
The first study is the CIA model CEL-2000 therapeutic vaccination conjugate specificity effect on AI scores (study 4.1 see FIG. 1 and legend). When significant disease is noted, usually about day 28, the mice are grouped (n=8) with a range of scores between 1 and 6 and group mean of 2.5 to 3. At this point the therapy begins according to protocol. Controls include groups with induced disease but no therapy and groups of healthy mice without induced disease. A therapy control of Enbrel (3 mg/kG daily) was included. In this study (FIG. 1), mice received two treatments of 33 nmoles (for CEL-2000 equivalent to 4.8 mg/kG) of CEL-2000, (the same dose as used for the L.E.A.P.S. HSV vaccines), or other conjugates of the same collagen peptide used in CEL-2000 using the same ICBLs as in the HSV or EAM systems for comparison using a GMP grade ICFA adjuvant.
AI scores are evaluations on a scale of 0=normal to 4=maximal effect of joint thickening, redness, immobilization of joints in a digit or total paw for each of the 4 paws in the CIA mouse model of rheumatoid arthritis.
Treatment started when group score was 3.5. This was done to have all groups starting with same score, as opposed to the range between […] seen in the first study. The same dose of Enbrel as was used in the first study but was given every other day for the entire study period of 28 days.

cytokines = assay: Serum cytokines after immunization (Ray Biotech protein microarrays); format: in vivo, A/J mice; details: unmodified J ICBL emulsified in Seppic ISA51
Description: The outcome of the immune response to vaccines is likely at least in part determined by the cytokines elicited by the immunization. Cytokines elicited by immunization of A/J mice with either the J, JgD or JH peptides emulsified in Seppic ISA51 were evaluated from serum obtained on days 3, 10 and 24 after immunization using Ray Biotech protein microarrays. […] IL12 is produced by DCs and macrophages and promotes the development of Th1 responses which are characterized by production of IL2 and IFN-γ. […] L.E.A.P.S. conjugates ex vivo studies

[2] = test system: collagen induced arthritis (CIA); assay: CIA model, histopathology of right rear feet; format: in vivo, DBA/1J mice; details: for disease pathology compared statistically with untreated CIA mice: Enbrel: 14 days after cessation of therapy, 3×CEL-2000: 3 weeks after immunization; for histopathology: bone resorption / histopathology: cartilage damage / histopathology: inflammation / histopathology: pannus: hind paw and ankle, Enbrel for 14 days, CEL-2000 100 nmol on days 0 and 7
Text: The fourth study is for the CIA model CEL-2000 therapeutic vaccination; histopathology (study 4.4 see FIG. 4 and legend). At the termination of the experiments the animals were euthanized, the right rear feet were collected and stored individually in buffered formalin to be fixed in preparation for paraffin embedding, sectioning, staining and analysis. The feet in buffered formalin were sent for processing, reading and plotting of the data (representative sections from mid group specimens were photographed).
The pathologists scored the feet for disease pathology in 4 areas: inflammation, pannus, cartilage and bone. FIG. 4 is a summary plot of the analysis performed cores of the 4 areas from the following groups: Control no disease; CIA disease: CIA Disease Enbrel daily for 14 days continued for 2 more weeks before termination: CEL-2000 and CEL-2001 groups (vaccinated on day 0 and 7) from study 1 (FIG. 1) and from study 2 (FIG. 2) 1× and 3×CEL-2000 vaccinated groups on day 0 and 7.

[3] = test system: vaccine peptides, collagen or citrulline or components used to make vaccines; details: mouse, in vivo
Description: The fifth study is for the CIA-model CEL-2000 vaccination serum antibodies (study 4.5). Antibody production to the vaccine peptides, collagen or citrulline or components used to make vaccines were evaluated in mouse sera from the previous two sets of studies. As expected, all sera recognized the bovine collagen molecule used to induce the disease. Neither the dose, amount of vaccine, nor timing of vaccination seemed to affect the titer or isotype. […] No antibodies were detected with reactivity to the citrulline using a citrulline fibrin peptide substrate in the ELISA. […] (data not shown) L.E.A.P.S. conjugates serum cytokine studies

Question: For “DGQEEKAGVVSTGLI-GGGGS-TGGKPGIAGFKGEQGPKGEP (DGQEEKAGVVSTGLIGGGGSTGGKPGIAGFKGEQGPKGEP; Completely synthesized peptide construct) [CEL-2001]”, which “effectiveness in the murine CIA model of RA relative to SEQ ID NO. 99” value [1] is on record?
Answer: The value was “less effective”.

Question: With DLLKNGERIEKVEGGG [J] as the substance, how does the “most remarkable change in cytokine levels upon immunization” value (cytokines) read?
Answer: The value was “reduction in IL10 levels”.

Question: With “DLLKNGERIEKVEGGGTGGKPGIAGFKGEQGPKGEP (Completely synthesized peptide construct) [CEL-2000, peptide J combined with the human type II collagen peptide 254-273]” as the substance, how does the “duration of effect versus Enbrel” value ([2]; 2 vaccinations at 100 nmol, 28 day period) read?
Answer: Its value is “more lasting effect than the multiple Enbrel treatments”.

Question: What about the “protection by all 4 histopathology criteria (group ranking)” value ([2]; 3× (100 nmol) on days 0 and 7, FIG. 4) of the same substance?
Answer: Its value is “best protected group (least diseased) by all 4 criteria”.

Question: What about the “disease pathology compared statistically with untreated CIA mice” value [2] of the same substance?
Answer: Its value is “statistically had less disease pathology”.

Question: And the “histopathology: bone resorption” value [2]?
Answer: The value was “less bone resorption in fewer digit joints”.

Question: And the “histopathology: cartilage damage” value [2]?
Answer: Its value is “minimal”.

Question: And the “histopathology: inflammation” value [2]?
Answer: Its value is “mild”.

Question: And the “histopathology: pannus” value [2]?
Answer: Its value is “minimal”.

Question: What about the “AI scores, reduction compared with other conjugates” value ([1]; study 4.1, 33 nmoles, versus CEL-2001 or CEL-2002) of the same substance?
Answer: Its value is “reduced to a greater extent than was seen with other conjugates”.

Question: And the “progression of disease, as indicated by AI scores” value ([1]; study 4.1)?
Answer: Its value is “limited the progression of disease”.

Question: What about the “progression of disease over the experimental period” value ([1]; study 4.2, 100 nmol dose (3× treatment) on days 0 and 7) of the same substance?
Answer: Its value is “appeared to limit the progression of disease throughout the experimental period”.

Question: And the “progression of arthritis disease compared with Enbrel” value ([1]; study 4.2, 2 doses of 33 or 100 nmol subcutaneously on days 0 and 7 or 0 and 14, Enbrel every other day for 28 days)?
Answer: Its value is “at least as good as those of mice treated with Enbrel”.

Question: And the “Joint thickening, redness, immobilization of joints in a digit or total paw” value ([1]; study 4.2, each of the 4 paws)?
Answer: Its value is “reduced”.

Question: What about the “progression of disease, as indicated by reduced AI scores” value ([1]; study 4.2, treatment started when group score was 3.5) of the same substance?
Answer: The value was “limited the progression of disease”.

Question: Enbrel [reference compound] was tested. Which “disease pathology compared statistically with untreated CIA mice” value [2] did it give?
Answer: Its value is “not statistically different from untreated CIA mice”.

Question: And the “histopathology: bone resorption” value [2]?
Answer: The value was “minimal”.

Question: And the “histopathology: cartilage damage” value [2]?
Answer: The value was “mild”.

Question: What about the “histopathology: inflammation” value [2] of the same substance?
Answer: Its value is “mild”.

Question: And the “histopathology: pannus” value [2]?
Answer: Its value is “minimal”.

Question: What about the “progression of disease, as indicated by AI scores” value ([1]; study 4.1) of the same substance?
Answer: Its value is “slightly more effective than the vaccine”.

Question: And the “antibodies to Enbrel in sera” value [3]?
Answer: The value was “antibodies could be detected”.

Question: With “TGGKPGIAGFKGEQGPKGEP ((254)..(273) Type II Collagen; listed as Homo sapiens) [CEL-2002]” as the substance, how does the “effectiveness in the murine CIA model of RA relative to SEQ ID NO. 99” value [1] read?
Answer: The value was “less effective”.
